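Exposure lasted 48 hours, with cells grown in 96-well plates and compounds tested at five concentrations. At the GI50, growth is halved.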 The source made the active and inactive calls. No stated cut-off is given here; in the data, active = GI50 up to about 1.1 µM and inactive = higher. A value given as a limit tells only on which side of the number the result lay.

Experimental findings from ChEMBL document CHEMBL1201862, “PubChem BioAssay data set” (2004) are described below.

Test systems include A498; MDA-MB-231; RXF 393; 786-0; UACC-257; SF-539; NCI-H460; SK-MEL-5; TK-10; EKVX; NCI-H226; SN12C; SR; A549; SK-OV-3; CAKI-1; HOP-92; OVCAR-4; NCI-H522.
What all share (experiment): NCI-60 cell line screen, 48 h

Regarding `Cc1c(C(=O)c2ccccc2)[n+]([O-])c2cc(Cl)c(Cl)cc2[n+]1[O-]`, the GI50 in the experiment with A498 was 19.6 µM (inactive); in the experiment with MDA-MB-231, 11.1 µM (inactive); in the experiment with RXF 393 it was 6.08 µM (inactive); in the experiment on 786-0, 15.8 µM (inactive); with UACC-257, 3.17 µM (inactive); in the experiment on SF-539, 17.2 µM (inactive). The GI50 in the experiment on NCI-H460 was 15.9 µM (inactive); in the experiment with SK-MEL-5, 15.2 µM (inactive); with TK-10 it was 11.5 µM (inactive); in the experiment with EKVX it was 13.5 µM (inactive); with NCI-H226 it was 2.51 µM (inactive); in the experiment on SN12C it was 15.2 µM (inactive). Moreover, the GI50 in the experiment with SR is 1.54 µM (inactive); in the experiment with A549 it was 13 µM (inactive); in the experiment on SK-OV-3, 19.6 µM (inactive); in the experiment on CAKI-1, 3.03 µM (inactive); in the experiment with HOP-92, 2.96 µM (inactive); in the experiment on OVCAR-4, 4.11 µM (inactive).

As for `CC(NC(=O)C1(N)CCCC1)C(=O)O` (stereo not drawn), the GI50 with A498, with MDA-MB-231, in the experiment with RXF 393, with 786-0, with UACC-257 and in the experiment with SK-MEL-5 was > 100 µM (inactive) each time. The GI50 in the experiment with TK-10, in the experiment with EKVX, in the experiment on NCI-H226, in the experiment on SN12C, with SR and in the experiment on A549 was > 100 µM (inactive) throughout. Moreover, the GI50 in the experiment on SK-OV-3, in the experiment on CAKI-1, in the experiment with NCI-H522 and in the experiment with OVCAR-4 was > 100 µM (inactive) in each case.

For `O=C(O)CSCC(=O)O`, the GI50 with A498, with MDA-MB-231, in the experiment with RXF 393, in the experiment on 786-0, in the experiment with UACC-257 and in the experiment on NCI-H460 was > 100 µM (inactive) throughout. In addition, the GI50 in the experiment with SK-MEL-5, in the experiment on TK-10, with EKVX, in the experiment on NCI-H226, in the experiment with SN12C and in the experiment on SR was > 100 µM (inactive) each time. Further, the GI50 in the experiment on A549, in the experiment with CAKI-1, with NCI-H522, with HOP-92 and in the experiment on OVCAR-4 was > 100 µM (inactive) each time.

With `CN(C(=O)Cc1cc(Cl)c(Cl)cc1NC(=O)CN)[C@H]1CCCC[C@@H]1N1CCCC1`, the GI50 is 20.2 µM (inactive) in the experiment with A498; 23.3 µM (inactive) with MDA-MB-231; 68.7 µM (inactive) in the experiment on RXF 393; 16.3 µM (inactive) in the experiment on 786-0; 18.6 µM (inactive) with UACC-257; 29.6 µM (inactive) in the experiment with NCI-H460. The GI50 in the experiment on TK-10 was 37.9 µM (inactive); in the experiment with EKVX, > 100 µM (inactive); with SN12C, 56.6 µM (inactive); in the experiment with SR, 29 µM (inactive); in the experiment on A549, 39.1 µM (inactive); in the experiment on SK-OV-3, > 100 µM (inactive). Besides, the GI50 with CAKI-1, in the experiment with HOP-92 and in the experiment on OVCAR-4 was > 100 µM (inactive) throughout.

In the case of `NC(=O)CC1OC(=O)Cc2cc3c(c(O)c21)C(=O)c1c(O)cccc1C3=O` (stereo not drawn), the GI50 is 43.9 µM (inactive) in the experiment with A498; > 100 µM (inactive) with MDA-MB-231; > 100 µM (inactive) with 786-0; > 100 µM (inactive) in the experiment on UACC-257; 92.7 µM (inactive) in the experiment on SF-539; 89.5 µM (inactive) in the experiment on NCI-H460. For the same molecule, the GI50 was 67.5 µM (inactive) in the experiment on SK-MEL-5; > 100 µM (inactive) in the experiment on TK-10; > 100 µM (inactive) with EKVX; > 100 µM (inactive) with NCI-H226; > 100 µM (inactive) in the experiment on SN12C; 43.7 µM (inactive) in the experiment on SR. In addition, the GI50 with A549, in the experiment with SK-OV-3, in the experiment on CAKI-1, in the experiment with NCI-H522, with HOP-92 and in the experiment with OVCAR-4 was > 100 µM (inactive) each time.

Consider `CCOC(=O)C(NC(=O)c1ccccc1)(N1CCN(c2cc3c(cc2F)c(=O)c(C(=O)O)cn3C2CC2)CC1)C(F)(F)F` (stereo not drawn), for which the GI50 is 28.1 µM (inactive) in the experiment on A498; 12.9 µM (inactive) in the experiment on MDA-MB-231; 19.5 µM (inactive) with RXF 393; 32.4 µM (inactive) in the experiment on 786-0; 15.2 µM (inactive) in the experiment on SF-539; 21 µM (inactive) with NCI-H460. The GI50 in the experiment with SK-MEL-5 was 15.8 µM (inactive); in the experiment with EKVX, 24.9 µM (inactive); in the experiment on NCI-H226 it was 21.2 µM (inactive); in the experiment on SN12C, 26.4 µM (inactive); in the experiment on SR, 20.5 µM (inactive); with A549, 34 µM (inactive). The GI50 with SK-OV-3 is 28.6 µM (inactive); in the experiment with CAKI-1, 19.3 µM (inactive); with HOP-92, 19.8 µM (inactive); with OVCAR-4 it was 22.5 µM (inactive).

As to `COc1cc(Cl)c(CC(=O)c2c[nH]c3ccccc23)cc1OC`, the GI50 in the experiment with A498 is 12.1 µM (inactive); in the experiment with MDA-MB-231, 8.95 µM (inactive); in the experiment on RXF 393, 12.3 µM (inactive); in the experiment with 786-0 it was 13.7 µM (inactive); in the experiment with UACC-257, > 100 µM (inactive); in the experiment on SF-539 it was 6.22 µM (inactive). For the same molecule, the GI50 in the experiment on NCI-H460 is > 100 µM (inactive); with SK-MEL-5 it was > 100 µM (inactive); in the experiment on TK-10 it was 16.9 µM (inactive); with EKVX, 18.7 µM (inactive); in the experiment on NCI-H226, 12.6 µM (inactive); in the experiment with SN12C it was 58.5 µM (inactive). Besides, the GI50 in the experiment with SR was > 100 µM (inactive); in the experiment with A549, > 100 µM (inactive); in the experiment with SK-OV-3, 8.07 µM (inactive); in the experiment on CAKI-1, > 36.1 µM (inactive); in the experiment with HOP-92 it was 5.36 µM (inactive); in the experiment on OVCAR-4, > 100 µM (inactive).

Regarding `O=C1c2ccccc2C2(c3ccc(Cl)cc3)N[C@@H]3CCCC[C@@H]3N12` (stereo partly drawn), the GI50 in the experiment with A498, in the experiment with MDA-MB-231, with RXF 393, in the experiment with 786-0, in the experiment on UACC-257 and in the experiment with SF-539 was > 100 µM (inactive) in each case. For the same molecule, the GI50 in the experiment on NCI-H460, with SK-MEL-5, in the experiment with TK-10, with EKVX, in the experiment with NCI-H226 and in the experiment on SN12C was > 100 µM (inactive) in each case. The GI50 in the experiment with SR, in the experiment with A549, with SK-OV-3, with CAKI-1, with HOP-92 and in the experiment with OVCAR-4 was > 100 µM (inactive) each time.

For `Cn1c2ccccc2c2c(-c3ccccc3)[n+]3ccccc3nc21`, the GI50 with A498 was > 100 µM (inactive); in the experiment with MDA-MB-231, 32.9 µM (inactive); in the experiment with 786-0, 23.2 µM (inactive); with UACC-257, 18.4 µM (inactive); in the experiment on SF-539 it was 34.8 µM (inactive); with NCI-H460, 21.9 µM (inactive). The GI50 with SK-MEL-5 is 16.8 µM (inactive); with TK-10, 31.9 µM (inactive); in the experiment with EKVX it was 36.1 µM (inactive); in the experiment on SN12C it was 25.8 µM (inactive); with SR, 23.9 µM (inactive); in the experiment on A549 it was 52.7 µM (inactive). The GI50 with SK-OV-3 was > 100 µM (inactive); in the experiment with CAKI-1 it was > 100 µM (inactive); in the experiment with NCI-H522, 25.4 µM (inactive); in the experiment on HOP-92, 14.6 µM (inactive); in the experiment on OVCAR-4, 61.7 µM (inactive).

Consider `BrCc1ccc2ccc3ccc(CBr)nc3c2n1`, for which the GI50 with A498 was 2.64 µM (inactive); in the experiment on MDA-MB-231, 1.62 µM (inactive); with RXF 393 it was 2.24 µM (inactive); in the experiment on 786-0, 2.51 µM (inactive); in the experiment with UACC-257, 3.18 µM (inactive); in the experiment on SF-539, 4.67 µM (inactive). Besides, the GI50 in the experiment on NCI-H460 is 4.23 µM (inactive); in the experiment on SK-MEL-5, 2.77 µM (inactive); with TK-10, 2.57 µM (inactive); in the experiment with EKVX, 9.59 µM (inactive); with NCI-H226, 5.92 µM (inactive); with SN12C, 2 µM (inactive). Further, the GI50 in the experiment on SR was 1.87 µM (inactive); in the experiment on A549, 13.3 µM (inactive); with SK-OV-3, 3.08 µM (inactive); in the experiment with CAKI-1, 3.55 µM (inactive); in the experiment with HOP-92 it was 2.06 µM (inactive); in the experiment with OVCAR-4, 3.5 µM (inactive).

For the molecule `CN1C=Cc2nccc3cc4c(c1c23)OCO4`, the GI50 with A498 is 4 µM (inactive); in the experiment with MDA-MB-231, 3.08 µM (inactive); in the experiment on RXF 393 it was 0.879 µM (active); in the experiment on 786-0, 1.61 µM (inactive); in the experiment with UACC-257, 2.53 µM (inactive); in the experiment on NCI-H460, 0.422 µM (active). The GI50 with SK-MEL-5 is 2.06 µM (inactive); in the experiment on TK-10, 3.64 µM (inactive); in the experiment on EKVX, 1.85 µM (inactive); in the experiment with NCI-H226 it was 2.83 µM (inactive); in the experiment with SN12C it was 1.64 µM (inactive); in the experiment on SR, 0.495 µM (active). Moreover, the GI50 in the experiment on A549 was 2.81 µM (inactive); with SK-OV-3 it was 8.39 µM (inactive); in the experiment on CAKI-1, 0.986 µM (active); in the experiment with NCI-H522 it was 0.776 µM (active); with OVCAR-4, 5.22 µM (inactive).

Consider `COc1ccc(-c2coc3cc(O)ccc3c2=O)cc1` [FORMONONETIN], for which the GI50 with A498 is > 100 µM (inactive); in the experiment on MDA-MB-231, 11.3 µM (inactive); in the experiment with 786-0, > 100 µM (inactive); with UACC-257, > 100 µM (inactive); with SF-539, > 100 µM (inactive); in the experiment with NCI-H460 it was > 100 µM (inactive). Further, the GI50 in the experiment with SK-MEL-5, in the experiment with TK-10, in the experiment with NCI-H226, in the experiment with SN12C, in the experiment on SR and in the experiment on A549 was > 100 µM (inactive) throughout. Also, the GI50 in the experiment with SK-OV-3, in the experiment with CAKI-1 and in the experiment with NCI-H522 was > 100 µM (inactive) each time.
